For assay [1], the system named is SEQ ID NO:96. Kind of assay: Microarray expression analysis, steroid-treated versus untreated C3A cells. The format is cell-based, human. The settings on record: early confluent C3A cells treated at 1, 10, and 100 μM for 1, 3, and 6 hours. The protocol: (§1) Total RNA is isolated from tissue samples using the guanidinium thiocyanate method and poly(A)^+ RNA is purified using the oligo-(dT) cellulose method. Each poly(A)^+ RNA sample is reverse transcribed using MMLV reverse-transcriptase, 0.05 pg/μl oligo-(dT) primer (21mer), 1× first strand buffer, 0.03 units/μl RNase inhibitor, 500 μM dATP, 500 μM dGTP, 500 μM dTTP, 40 μM dCTP, 40 μM dCTP-Cy3 (BDS) or dCTP-Cy5 (Amersham Biosciences). The reverse transcription reaction is performed in a […] containing 200 ng poly(A)^+ RNA with GEMBRIGHT kits (Incyte Genomics). Specific control poly(A)^+ RNAs are synthesized by in vitro transcription from non-coding yeast genomic DNA. […]
(§2) Sequences of the present invention are used to generate array elements. […] Array elements are amplified in thirty cycles of PCR from an initial quantity of 1-2 ng to a final quantity greater than 5 μg. […]
(§3) Reporter-labeled hybridization complexes are detected with a microscope equipped with an Innova 70 mixed gas 10 W laser (Coherent, Inc., Santa Clara Calif.) capable of generating spectral lines at 488 nm for excitation of Cy3 and at 632 nm for excitation of Cy5. […]
(§4) A grid is superimposed over the fluorescence signal image such that the signal from each spot is centered in each element of the grid. […]

Assay [2] concerns SEQ ID NO:94. As to the kind of experiment: Microarray expression analysis, activated versus untreated Jurkat cells. The format is cell-based, human. The settings on record: Jurkat cells treated with combinations of graded doses of PMA (5 nM-1 μM) and ionomycin (50 ng/ml-10μ/ml), 1 hour time point. As to the method:
as §1, §2, §3, §4

Assay [3] relates to SEQ ID NO:101. As to the kind of experiment: Microarray expression analysis, TNF-α treated versus untreated HUVECs. The format is cell-based, human. To be noted: HUVECs at 85% confluence treated for 0.33, 0.66, 1, 4, 8, 24, 48, and 72 hours, versus untreated HUVECs (0 hour). The protocol:
as §1, §2, §3, §4

In assay [4] the test system is SEQ ID NO:102. The assay is described as above. The format is cell-based, human. The settings on record: HUVECs at 85% confluence treated for 0.33, 0.66, 1, 4, 8, 24, 48, and 72 hours, versus untreated HUVECs (0 hour). The protocol:
as §1, §2, §3, §4

Assay [5] relates to SEQ ID NO:104. As to the kind of experiment: Microarray expression analysis, preadipocytes exposed to differentiation factors versus untreated. The settings on record: human preadipocytes treated with human insulin and PPAR-γ agonist for 3 days, then insulin. The format is cell-based. The protocol:
as §1, §2, §3, §4

In the case of “6-methyl-17-hydroxyprogesterone [medroxyprogesterone]”, in assay [1], the “expression of SEQ ID NO:96” value is on record as “decreased expression”. Turning to `CCCCCCCCCCCCCC(=O)O[C@@H]1[C@@H](C)[C@@]2(O)[C@@H](C=C(CO)C[C@]3(O)C(=O)C(C)=C[C@@H]23)[C@@H]2C(C)(C)[C@]12OC(C)=O` [PMA, Phorbol myristate acetate], in assay [2], the “expression of SEQ ID NO:94” value is listed as “decreased expression”.

For `C[C@H]1C[C@H]2[C@@H]3CCC4=CC(=O)C=C[C@]4(C)[C@@]3(Cl)[C@@H](O)C[C@]2(C)[C@@]1(O)C(=O)CO` [beclomethasone, Beclomethasone], the “expression of SEQ ID NO:96” value in assay [1] is recorded as “decreased expression”. As for `C[C@H](CCC(=O)O)C[C@H](C)C[C@H](C)C(=O)/C=C(\O)[C@H](C)C[C@H](C)C/C=C/[C@@H](C)[C@@H](O)[C@@H](C)[C@@H](O)C[C@@H]1CC[C@@](C)([C@H]2CC[C@@](C)([C@@H](C)O)O2)O1` [ionomycin, Ionomycin], the “expression of SEQ ID NO:94” value in assay [2] is reported as “decreased expression”. For the compound TNF-α, the “expression of SEQ ID NO:101” value in assay [3] is “decreased expression”. Also, the “expression of SEQ ID NO:102” value in assay [4] is on record as “decreased expression”. Take “human insulin: differentiation factor used on human preadipocytes”: the “expression of SEQ ID NO:104” value in assay [5] is “decreased expression”.

The record behind these values is US20050048490A1, “Proteins associated with cell growth, differentiation, and death” (incyte corp., priority 2002, published 2005).
